Assay results as given in article PMC12394658, “Discovery of Zharp1-163 as a dual inhibitor of ferroptosis and necroptosis for the treatment of inflammatory disorders and kidney injury” (Cell Death Discovery, 2025).

Tests used:
RIPK1 = RIPK1 (Homo sapiens, UniProt Q13546); assay: ADP-Glo kinase assay with recombinant RIPK1 ([…] ATP, MBP substrate); binding curve also shown in Fig. 4A; type: biochemical
AXL = AXL (Homo sapiens, UniProt P30530); assay: biochemical; parameters: Kinase selectivity panel of 81 human kinases, ADP-Glo or HTRF, per cent inhibition at 1 uM
Sequence of AXL (P30530 whole entry, the tested form may be a part): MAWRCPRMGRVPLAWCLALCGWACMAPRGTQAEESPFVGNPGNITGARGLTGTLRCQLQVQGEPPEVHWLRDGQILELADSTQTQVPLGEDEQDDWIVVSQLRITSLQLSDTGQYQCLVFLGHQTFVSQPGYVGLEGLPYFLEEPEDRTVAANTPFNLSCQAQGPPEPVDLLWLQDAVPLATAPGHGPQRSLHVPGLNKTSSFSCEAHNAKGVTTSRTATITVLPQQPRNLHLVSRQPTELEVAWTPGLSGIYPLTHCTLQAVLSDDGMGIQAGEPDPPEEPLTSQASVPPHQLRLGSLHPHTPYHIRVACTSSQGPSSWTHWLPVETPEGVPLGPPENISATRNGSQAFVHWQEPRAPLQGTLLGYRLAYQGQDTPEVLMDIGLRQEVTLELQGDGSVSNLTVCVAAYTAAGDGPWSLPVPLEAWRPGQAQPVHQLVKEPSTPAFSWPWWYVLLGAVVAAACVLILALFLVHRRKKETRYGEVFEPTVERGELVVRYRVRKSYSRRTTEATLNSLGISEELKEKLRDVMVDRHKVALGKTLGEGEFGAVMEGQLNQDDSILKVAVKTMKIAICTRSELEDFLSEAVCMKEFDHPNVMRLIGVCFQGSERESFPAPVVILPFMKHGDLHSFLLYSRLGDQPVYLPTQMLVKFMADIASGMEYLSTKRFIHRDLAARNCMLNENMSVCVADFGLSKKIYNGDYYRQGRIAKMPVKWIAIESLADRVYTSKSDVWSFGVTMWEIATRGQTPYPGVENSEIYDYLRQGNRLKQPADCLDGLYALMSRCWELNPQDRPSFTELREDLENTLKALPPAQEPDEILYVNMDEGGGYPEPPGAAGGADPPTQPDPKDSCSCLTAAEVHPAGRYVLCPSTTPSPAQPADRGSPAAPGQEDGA
Experimental: (§1) We next sought to determine the binding affinity of Zharp1-163 for RIPK1 or RIPK3 via a binding assay (Fig. 4A). […] Further, we evaluated the selectivity of Zharp1-163 against a panel of 81 kinases (at 1000 nM). […] To elucidate the binding interactions between Zharp1-163 and RIPK1 kinase, we conducted molecular docking studies using the RIPK1 crystal structure (PDB ID: 4NEU). The predicted binding conformations and interaction patterns between Zharp1-163 and the RIPK1 kinase domain are presented in Fig. 4D, E. Like the cocrystallized ligand in the 4NEU crystal complex, Zharp1-163 was predicted to act as a typical type II kinase inhibitor, interacting with the DLG (Asp156-Leu157-Gly158)-out conformation of RIPK1 (Fig. 4D, E). The 2-aminoimidazo [1,2-a] pyridine moiety of Zharp1-163 formed hydrogen bonds with Met95 in the hinge region. Furthermore, the carboxylate group of Zharp1-163 established hydrogen bonds with Asp156 in the DLG-out region. Additionally, the saturated ring of Zharp1-163 was deeply embedded within the hydrophobic allosteric pocket formed by the residues Met66, Met67, Leu70, Val76, Leu129, and Leu159, which is created by the DLG-out conformation in RIPK1 (Fig. 4D, E).  Fig. 4 Zharp1-163 is a selective inhibitor of RIPK1 kinase activity. A Binding affinity curve of Zharp1-163 with RIPK1 and RIPK3. B In an in vitro kinase activity assay, recombinant RIPK1 was incubated with Zharp1-163, after which RIPK1 kinase activity was determined by measuring ATP levels via a luciferase reporter assay system. […] Kinases are marked with dots, where the color of each kinase indicates the level of inhibition achieved by Zharp1-163. D Predicted binding conformation of Zharp1-163. E Schematic representation of the interaction patterns between Zharp1-163 and the key residues in the binding pocket of the RIPK1 kinase. […] NIH3T3-RIPK3 cells were pretreated with the indicated concentrations of Zharp1-163 for 2 h and then treated with AP20187 (100 nM) for 24 h. Cell viability was determined by measuring ATP levels. […] HeLa-MLKL (1–190) cells were pretreated with the indicated concentrations of Zharp1-163 for 2 h and subsequently treated with AP20187 (100 nM) for 24 h. Cell viability was determined by measuring ATP levels. H Viability of IFNβ-primed MEFs at 18 h after stimulation with poly(I:C) plus z-VAD and treatment with Zharp1-163 (10 μM). I Effects of different concentrations of Zharp1-163 on WT or RIPK1 KO HT-29 cells. Cell viability was determined by measuring ATP levels. The data are presented as the mean ± SD of triplicate samples.

BMX = BMX (Homo sapiens, UniProt P51813); assay: biochemical; parameters: Kinase selectivity panel of 81 human kinases, ADP-Glo or HTRF, per cent inhibition at 1 uM
Experimental: as §1

BRAF = BRAF (Homo sapiens, UniProt P15056); assay: biochemical; parameters: Kinase selectivity panel of 81 human kinases, ADP-Glo or HTRF, per cent inhibition at 1 uM
Sequence of BRAF (P15056 whole entry): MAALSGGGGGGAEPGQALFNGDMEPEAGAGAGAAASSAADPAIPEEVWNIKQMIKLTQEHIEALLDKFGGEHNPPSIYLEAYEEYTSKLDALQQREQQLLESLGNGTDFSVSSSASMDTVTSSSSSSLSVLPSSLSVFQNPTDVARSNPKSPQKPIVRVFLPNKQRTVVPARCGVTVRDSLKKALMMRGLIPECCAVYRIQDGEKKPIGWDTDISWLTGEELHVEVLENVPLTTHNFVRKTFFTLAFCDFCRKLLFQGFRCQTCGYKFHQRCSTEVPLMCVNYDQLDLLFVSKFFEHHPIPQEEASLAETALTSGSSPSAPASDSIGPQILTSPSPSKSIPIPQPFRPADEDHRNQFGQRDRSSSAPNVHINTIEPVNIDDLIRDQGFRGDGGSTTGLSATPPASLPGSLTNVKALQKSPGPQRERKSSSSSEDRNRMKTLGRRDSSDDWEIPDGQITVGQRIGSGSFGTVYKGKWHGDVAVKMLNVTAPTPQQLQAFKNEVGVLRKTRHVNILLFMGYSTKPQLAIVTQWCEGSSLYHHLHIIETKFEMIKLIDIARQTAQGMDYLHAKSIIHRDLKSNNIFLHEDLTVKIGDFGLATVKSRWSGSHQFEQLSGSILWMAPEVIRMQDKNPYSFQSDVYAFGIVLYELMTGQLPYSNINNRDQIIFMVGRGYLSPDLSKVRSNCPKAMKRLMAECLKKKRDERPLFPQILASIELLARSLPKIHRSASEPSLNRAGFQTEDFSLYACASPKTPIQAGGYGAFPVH
Experimental: as §1

CDK2/CycE1 = CDK2/CycE1 (Homo sapiens, UniProt P24941); assay: biochemical; parameters: Kinase selectivity panel of 81 human kinases, ADP-Glo or HTRF, per cent inhibition at 1 uM
Experimental: as §1

EGFR = EGFR (Homo sapiens, UniProt P00533); assay: biochemical; parameters: Kinase selectivity panel of 81 human kinases, ADP-Glo or HTRF, per cent inhibition at 1 uM
Sequence of EGFR (P00533 whole entry): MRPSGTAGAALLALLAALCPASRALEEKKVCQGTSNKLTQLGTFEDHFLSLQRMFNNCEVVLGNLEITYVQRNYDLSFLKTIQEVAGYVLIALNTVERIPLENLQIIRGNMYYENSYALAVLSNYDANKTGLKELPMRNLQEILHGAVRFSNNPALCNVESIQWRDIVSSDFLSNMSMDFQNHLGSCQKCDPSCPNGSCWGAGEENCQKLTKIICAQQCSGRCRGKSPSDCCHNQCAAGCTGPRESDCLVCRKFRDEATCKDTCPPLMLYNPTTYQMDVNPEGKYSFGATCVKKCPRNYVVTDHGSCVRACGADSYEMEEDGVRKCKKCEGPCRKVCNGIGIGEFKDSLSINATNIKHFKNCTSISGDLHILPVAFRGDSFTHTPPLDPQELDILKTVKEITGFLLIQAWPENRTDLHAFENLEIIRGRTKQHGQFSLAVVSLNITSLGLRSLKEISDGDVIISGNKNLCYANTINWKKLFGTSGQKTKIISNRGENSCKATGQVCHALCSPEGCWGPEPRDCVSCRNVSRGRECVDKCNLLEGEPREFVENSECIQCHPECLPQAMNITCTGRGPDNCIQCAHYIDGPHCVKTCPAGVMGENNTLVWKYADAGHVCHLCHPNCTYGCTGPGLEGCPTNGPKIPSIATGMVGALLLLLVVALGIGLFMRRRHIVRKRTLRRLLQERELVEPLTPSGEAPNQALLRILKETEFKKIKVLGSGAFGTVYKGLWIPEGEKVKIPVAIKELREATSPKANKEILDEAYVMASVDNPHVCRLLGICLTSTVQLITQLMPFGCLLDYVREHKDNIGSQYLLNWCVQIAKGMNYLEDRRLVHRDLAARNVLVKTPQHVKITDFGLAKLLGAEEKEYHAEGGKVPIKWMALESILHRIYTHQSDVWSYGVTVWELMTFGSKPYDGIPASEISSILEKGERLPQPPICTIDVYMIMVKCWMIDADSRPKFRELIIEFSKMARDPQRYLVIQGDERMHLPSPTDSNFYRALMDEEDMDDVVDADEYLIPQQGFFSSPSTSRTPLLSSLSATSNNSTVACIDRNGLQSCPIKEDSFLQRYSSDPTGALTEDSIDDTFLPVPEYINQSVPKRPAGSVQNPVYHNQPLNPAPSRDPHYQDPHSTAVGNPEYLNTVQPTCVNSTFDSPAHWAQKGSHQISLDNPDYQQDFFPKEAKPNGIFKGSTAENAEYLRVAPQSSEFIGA
Experimental: as §1

Erk2 = target: T1, Erk2 (Homo sapiens, UniProt P28482); assay: biochemical; parameters: Kinase selectivity panel of 81 human kinases, ADP-Glo or HTRF, per cent inhibition at 1 uM
T1 construct: gene MAPK1
T1 sequence (P28482 whole entry): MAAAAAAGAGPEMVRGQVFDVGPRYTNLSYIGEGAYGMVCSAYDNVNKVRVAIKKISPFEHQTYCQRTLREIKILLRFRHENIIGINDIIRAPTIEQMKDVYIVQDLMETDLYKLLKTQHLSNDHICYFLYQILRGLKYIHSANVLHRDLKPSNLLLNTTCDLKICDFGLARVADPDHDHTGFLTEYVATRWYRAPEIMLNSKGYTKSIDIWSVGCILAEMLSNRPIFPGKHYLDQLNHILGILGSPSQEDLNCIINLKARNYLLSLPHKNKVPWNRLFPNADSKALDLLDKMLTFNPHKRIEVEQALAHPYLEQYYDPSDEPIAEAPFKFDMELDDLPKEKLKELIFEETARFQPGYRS
Experimental: as §1

IKKα = target: T2, IKKα (Homo sapiens, UniProt O15111); assay: biochemical; parameters: Kinase selectivity panel of 81 human kinases, ADP-Glo or HTRF, per cent inhibition at 1 uM
T2 construct: gene CHUK
T2 sequence (O15111 whole entry): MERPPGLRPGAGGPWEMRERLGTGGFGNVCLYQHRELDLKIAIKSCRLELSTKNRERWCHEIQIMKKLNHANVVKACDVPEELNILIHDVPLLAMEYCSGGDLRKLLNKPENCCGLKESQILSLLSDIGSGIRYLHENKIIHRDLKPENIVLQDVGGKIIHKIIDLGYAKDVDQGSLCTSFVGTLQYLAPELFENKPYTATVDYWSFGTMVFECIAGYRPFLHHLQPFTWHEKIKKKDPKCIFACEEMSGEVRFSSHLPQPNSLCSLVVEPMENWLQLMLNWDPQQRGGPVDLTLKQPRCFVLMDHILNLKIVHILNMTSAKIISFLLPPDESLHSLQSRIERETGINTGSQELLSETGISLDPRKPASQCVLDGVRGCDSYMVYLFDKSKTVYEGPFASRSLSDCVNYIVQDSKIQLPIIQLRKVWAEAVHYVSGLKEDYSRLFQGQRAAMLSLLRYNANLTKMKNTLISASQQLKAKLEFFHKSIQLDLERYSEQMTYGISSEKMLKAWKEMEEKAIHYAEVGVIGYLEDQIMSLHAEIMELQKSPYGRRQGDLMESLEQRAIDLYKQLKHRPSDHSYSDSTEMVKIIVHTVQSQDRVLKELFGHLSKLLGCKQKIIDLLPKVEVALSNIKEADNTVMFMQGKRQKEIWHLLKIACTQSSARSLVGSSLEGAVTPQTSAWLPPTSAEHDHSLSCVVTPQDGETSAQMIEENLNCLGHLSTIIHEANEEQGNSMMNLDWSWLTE
Experimental: as §1

NEK1 = NEK1 (Homo sapiens, UniProt Q96PY6); assay: biochemical; parameters: Kinase selectivity panel of 81 human kinases, ADP-Glo or HTRF, per cent inhibition at 1 uM
Experimental: as §1

NEK2 = NEK2 (Homo sapiens, UniProt P51955); assay: biochemical; parameters: Kinase selectivity panel of 81 human kinases, ADP-Glo or HTRF, per cent inhibition at 1 uM
Sequence of NEK2 (P51955 whole entry): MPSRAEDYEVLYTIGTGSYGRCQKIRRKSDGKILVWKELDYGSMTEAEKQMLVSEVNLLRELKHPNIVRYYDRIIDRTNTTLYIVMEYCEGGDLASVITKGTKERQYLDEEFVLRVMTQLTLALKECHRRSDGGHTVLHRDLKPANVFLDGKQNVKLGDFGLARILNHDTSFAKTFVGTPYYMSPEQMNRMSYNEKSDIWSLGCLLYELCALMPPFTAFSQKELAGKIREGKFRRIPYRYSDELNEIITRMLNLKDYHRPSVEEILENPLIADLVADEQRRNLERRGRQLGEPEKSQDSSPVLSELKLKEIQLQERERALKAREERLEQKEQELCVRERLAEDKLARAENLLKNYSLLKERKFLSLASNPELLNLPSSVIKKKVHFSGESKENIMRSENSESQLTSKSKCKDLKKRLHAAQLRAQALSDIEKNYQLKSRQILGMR
Experimental: as §1

PKACα = target: T3, PKACα (Homo sapiens, UniProt P17612); assay: biochemical; parameters: Kinase selectivity panel of 81 human kinases, ADP-Glo or HTRF, per cent inhibition at 1 uM
T3 construct: gene PRKACA
Experimental: as §1

PLK1 = PLK1 (Homo sapiens, UniProt P53350); assay: biochemical; parameters: Kinase selectivity panel of 81 human kinases, ADP-Glo or HTRF, per cent inhibition at 1 uM
Experimental: as §1

TAOK1 = TAOK1 (Homo sapiens, UniProt Q7L7X3); assay: biochemical; parameters: Kinase selectivity panel of 81 human kinases, ADP-Glo or HTRF, per cent inhibition at 1 uM
Experimental: as §1

WEE1 = WEE1 (Homo sapiens, UniProt P30291); assay: biochemical; parameters: Kinase selectivity panel of 81 human kinases, ADP-Glo or HTRF, per cent inhibition at 1 uM
Sequence of WEE1 (P30291 whole entry): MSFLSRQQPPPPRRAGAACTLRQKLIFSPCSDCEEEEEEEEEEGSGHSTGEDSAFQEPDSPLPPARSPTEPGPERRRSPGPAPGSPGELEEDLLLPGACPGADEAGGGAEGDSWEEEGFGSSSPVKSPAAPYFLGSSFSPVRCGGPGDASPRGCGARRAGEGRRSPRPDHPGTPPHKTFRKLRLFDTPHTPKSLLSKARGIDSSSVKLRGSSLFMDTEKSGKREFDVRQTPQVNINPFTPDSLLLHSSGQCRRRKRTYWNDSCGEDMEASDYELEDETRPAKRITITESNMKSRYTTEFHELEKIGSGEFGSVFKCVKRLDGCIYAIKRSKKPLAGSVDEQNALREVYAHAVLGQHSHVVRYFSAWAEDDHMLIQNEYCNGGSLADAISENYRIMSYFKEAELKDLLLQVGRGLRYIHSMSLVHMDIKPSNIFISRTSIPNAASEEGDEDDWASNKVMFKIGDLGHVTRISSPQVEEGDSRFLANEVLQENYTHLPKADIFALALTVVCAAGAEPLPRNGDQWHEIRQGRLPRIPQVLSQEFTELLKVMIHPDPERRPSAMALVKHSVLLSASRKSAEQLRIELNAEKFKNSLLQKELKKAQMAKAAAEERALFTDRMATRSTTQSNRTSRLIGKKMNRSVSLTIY
Experimental: as §1

For `Nc1cn2cc(-c3cnc4c(c3)N(C(=O)OC3CCCCC3)CCO4)ccc2n1` [Zharp1-163], the IC50 (RIPK1) was roughly 406 nM, the inhibition at 1 µM (AXL; replicate Data1) was 10.9% and the inhibition at 1 µM (AXL; replicate Data2) was 1.24%. For the same compound, the inhibition at 1 µM (BMX; replicate Data1) was -3.03%, the inhibition at 1 µM (BMX; replicate Data2) was 11.3% and the inhibition at 1 µM (BRAF; replicate Data1) was 6.11%. For the same compound, the inhibition at 1 µM (BRAF; replicate Data2) was -8.57%, the inhibition at 1 µM (CDK2/CycE1; replicate Data1) was 3.25% and the inhibition at 1 µM (CDK2/CycE1; replicate Data2) was -0.65%. For the same compound, the inhibition at 1 µM (EGFR; replicate Data1) was -2.16%, the inhibition at 1 µM (EGFR; replicate Data2) was -4.3% and the inhibition at 1 µM (Erk2; replicate Data1) was 17.9%. The inhibition at 1 µM (Erk2; replicate Data2) was 10.3%, the inhibition at 1 µM (IKKα; replicate Data1) was 0.19% and the inhibition at 1 µM (IKKα; replicate Data2) was 7.24%. It also gave an inhibition at 1 µM (NEK1; replicate Data1) of 4.63%, an inhibition at 1 µM (NEK1; replicate Data2) of 13.4% and an inhibition at 1 µM (NEK2; replicate Data1) of -4.5%. For the same compound, the inhibition at 1 µM (NEK2; replicate Data2) was 1.76%, the inhibition at 1 µM (PKACα; replicate Data1) was -0.64% and the inhibition at 1 µM (PKACα; replicate Data2) was 3.94%. It also gave an inhibition at 1 µM (PLK1; replicate Data1) of -5.06%, an inhibition at 1 µM (PLK1; replicate Data2) of -18% and an inhibition at 1 µM (TAOK1; replicate Data1) of 2.07%. The inhibition at 1 µM (TAOK1; replicate Data2) was -4.35%, the inhibition at 1 µM (WEE1; replicate Data1) was 9.26% and the inhibition at 1 µM (WEE1; replicate Data2) was 4.33%.
